Source: patent US11573241B2, “Total cellular iron as a marker of cancer stem cells and uses thereof” (Institut National de la Sante et de la Recherche Medicale …, priority 2016, dated 2023)
“Also recorded” adds a separate entry of the source.

Assays:
[1] = type: physicochemical
Description: FIG. 1. Salinomycin and AM5 sequester iron in lysosomes and trigger ferritin degradation. a, Chemical strategy to visualize small molecules in cells. b, Fluorescence microscopy images of U2OS cells showing the subcellular localization of labeled Sal derivatives AM4, AM5, and AM9. Lysotracker Deep Red stains the lysosomes and 4′,6-diamidino-2-phenylindole (DAPI) stains nuclear DNA. Scale bar, 10 μm. Zoom corresponds to ×6. c, Live cell fluorescence microscopy images showing the subcellular localization of iron(II) using the fluorogenic reduction of RhoNox-1 (green) in HMLER CD24^low cells treated with Sal or AM5 or AM9 (0.5 μM) for 48 h. Lysotracker deep red stains the lysosomes (red) and DAPI stains nuclear DNA (blue). Scale bar, 10 μm. d, Fixed cell fluorescence microscopy images showing the subcellular localization of iron(II) using the fluorogenic reduction of RhoNox-1 (green) in HMLER CD24^low cells treated with Sal or AM5 or AM9 (0.5 μM) for 48 h. e, Quantification of lysotracker-positive vesicles colocalizing with RhoNox-1 in fixed cells was carried out by means of visual inspection. At least 75 cells were counted per condition. Data represent three independent biological replicates (n=number of lysotracker vesicles). […] Spectra were recorded in CD3CN. […] For k and I, Samples prepared in CD3OD, spectra recorded at 298 K, 5 min following sample preparation (600 MHz). […]

[2] = test system: HMLER CD24^low cells; experiment: Fluorescence microscopy of ferritin subcellular localization; type: cell-based, human; settings: 6 h
[3] = test system: ALDH+ iCSCL-10A2 cell subpopulation; experiment: Flow cytometry of ALDH+ CSC subpopulation in vitro; type: cell-based; settings: 0.5 μM, 48 h
Protocol: FIG. 13. Sal and AM5 effect on an ALDH+CSC cell population in vitro. Flow cytometry measurement of the effect of 0.5 μM Sal and AM5 against ALDH+ iCSCL-10A2 cell subpopulation after treated for 48 h. DEAB is the diethylaminobenzaldehyde ALDH inhibitor.

[4] = test system: patient-derived xenografts (PDX 1 and 2); type: in vivo, NOD/SCID mice; settings: intra-peritoneal; for ratio of residual ALDH+ cells / tumor growth: 4 weeks
Description: Patient derived xenografts (PDXs). PDXs were established as previously described in Charafe-Jauffret et al., Cancer Res. 73, 7290-7300 (2013) from tissue samples collected prospectively at the Institut Paoli-Calmettes (IPC). Samples of human origin and associated data were obtained from the IPC/CRCM Tumor Bank that operates under authorization #AC-2007-33 granted by the French Ministry of Higher Education and Research. Before scientific use of samples and data, patients were appropriately informed and asked to consent in writing, in compliance with French and European regulations. The project was approved by the IPC Institutional Review Board. Cells from 2 different patient-derived xenografts (PDX 1 and 2) were transplanted orthotopically into fat pads of 4-week-old female non-obese diabetic/severe combined immunodeficient (NOD/SCID) mice (NOD.CB17-Prkdcscid/J, Charles River France) after mechanical treatment and enzymatic digestion using collagenase/hyaluronidase (StemCell Technologies) to generate single-cell suspension suitable for implantation in vivo. PDXs were primarily established as previously described in Caraft-Jauffret et al., and evaluated for ALDEFLUOR-positive CSCs. We injected single cancer cells into fat pads of NOD/SCID mice and monitored tumor growth. When tumor size reached approximately 150 mm^3, Sal and AM5 treatments were performed as indicated above for FIGS. 14 and 15. Tumor growth was compared with that of docetaxel and placebo-treated controls. After 4 weeks of treatment, the animals were sacrificed and the proportion of ALDEFLUOR-positive CSCs was measured in each residual tumor. All animal studies were approved by the French Ministry of Higher Education and Research (authorization number D130554) and ethical committee (number 14), of Aix-Marseille Université. No randomization was used and experimenters were blinded to drug treatments and tissue analyses.
Aldefluor assay. The analysis was processed on single-cell suspension from the PDXs obtained as described above. The ALDEFLUOR Kit (Stemcell™ Technologies) was used to isolate the population with high aldehyde dehydrogenase enzymatic activity using an LSR2 cytometer (Becton Dickinson Biosciences), as previously described in Charafe-Jauffret et al. To eliminate cells of mouse origin from the PDXs, we used staining with an anti-H2Kd antibody (BD Biosciences, 1:200, 20 min on ice) followed by staining with a secondary antibody labeled with phycoerythrin (PE; Jackson Laboratories, 1:250, 20 min on ice).

## C#CCN[C@@H]1C=C[C@]2(O[C@H]([C@@H](CC)C(=O)[C@@H](C)[C@@H](O)[C@H](C)C3O[C@@H](C(CC)C(=O)O)CC[C@@H]3C)[C@@H](C)C[C@H]2C)O[C@@]12CC[C@@](C)([C@H]1CC[C@](O)(CC)[C@H](C)O1)O2 (stereo partly shown) [AM5, Sal-Propargylamine]
[1]
  stability in the presence of iron(II) over time: stable
[2]
  subcellular localization of ferritin: re-localization of ferritin to the lysosomal compartment
[3]
  effect against ALDH+ subpopulation: selectively targeted the ALDH+ subpopulation; also recorded: more effectively than Sal
[4]
  toxicity at effective doses: without detectable toxicity
  ratio of residual ALDH+ cells: reduced ratio of ALDH+ cells
  tumor growth: reduce tumor growth

## CC[C@@H](C(=O)[C@@H](C)[C@@H](O)[C@H](C)[C@@H]1O[C@@H]([C@@H](CC)C(=O)O)CC[C@@H]1C)[C@H]1O[C@]2(C=C[C@@H](O)[C@]3(CC[C@@](C)([C@H]4CC[C@](O)(CC)[C@H](C)O4)O3)O2)[C@H](C)C[C@@H]1C [Sal, salinomycin, reference compound]
[1]
  stability in the presence of iron(II) over time: formation of byproducts
[4]
  toxicity at effective doses: without detectable toxicity
  ratio of residual ALDH+ cells: reduced ratio of ALDH+ cells
  tumor growth: reduce tumor growth
